Reference: a melting point compilation (Tetko et al.; mined from patent text by program, amines drawn as free bases though some values may be those of a salt)

Row | Structure (SMILES) | melting point [°C]
1 | CC(Cc1ccc(OCc2ccccc2)cc1)NC(=O)CC(c1ccccc1)c1ccccc1 (centres undefined) | 121 to 125
2 | CC(C(=O)O)c1ccc2c(c1)C(=O)Cc1ccccc1O2 (centres undefined) | 152 to 154
3 | NC(=O)c1ccccc1-c1cc([N+](=O)[O-])ccc1-c1ccc([N+](=O)[O-])cc1 | 242 to 244
4 | O=C(O)C1=CCC(c2ccccc2)(c2ccccc2)CC1 | 227 to 229
5 | CSC(=C(C#N)C#N)N(C)N=Cc1ccccc1 | 159 to 160
6 | CC(C)(C)OC(=O)NC1CC2CCCC(C1)N2Cc1ccccc1 (centres undefined) | 154 to 155
7 | O=C(O)CCCOc1ccc(C(=O)c2ccc(F)cc2)cc1 | 109 to 111
8 | O=C1NCCN1C(c1ccccc1)c1ccccc1 | 200 to 202
9 | CC(O)c1nccc(=O)[nH]1 (centres undefined) | 121 to 124
10 | OC(c1ccc2c(c1)COCO2)c1cn(C(c2ccccc2)(c2ccccc2)c2ccccc2)cn1 (centres undefined) | 165 to 167
11 | COc1ccc(C(c2ccc(OC)cc2)C2CN(C)CCC2=O)cc1 (centres undefined) | 104 to 106
12 | CC(=O)N(c1ccc(C)c(C)c1)[C@H](C)C(=O)O | 156 to 159
13 | COc1ccc2[nH]cc(/C(C#N)=C/c3ccn(C)n3)c2c1 | 178
14 | CCOC(=O)c1ncn2c1CN(C)C(=O)c1ncccc1-2 | 252 to 254
15 | COc1ccc(C2(c3ccc(OC)cc3)Nc3ccc(-c4ccc5[nH]cnc5c4)cc3N2)cc1 | 267 to 270
16 | CCC(=O)Nc1cccc(NC(=O)C2CC2)c1 | 185 to 186
17 | COc1ccc(CC(=O)c2cccs2)cc1 | 77 to 78.4
18 | CSC(=C[N+](=O)[O-])NCCSCc1ccsn1 | 64.5 to 65.5
19 | Cc1ccc(NC(=O)C=Cc2ccccc2)cc1NC(=O)C=Cc1ccccc1 | 217 to 219
20 | O=C(O)C(c1ccccc1)N1C(=O)c2ccccc2C1=O (centres undefined) | 175 to 177
21 | O=c1[nH]c2cc(Cl)ccc2c(=O)n1S(=O)(=O)c1ccccc1Cl | 275 to 276
22 | C[C@H]([C@H](O)c1ccc(O)c(O)c1)N1CCC(O)(c2ccccc2)CC1 (relative stereo) | 167 to 168
23 | COc1cc2c(cc1OCc1ccccc1)CCN(Cc1cccc(O)c1)C2 | 78 to 79
24 | c1ccc2ncc(N3CCNCC3)cc2c1 | 87.7 to 88.5
25 | CS(=O)(=O)Nc1ccc([N+](=O)[O-])cc1C(=O)C1CCCCC1 | 178 to 179

Row | Structure (SMILES) | melting point [°C]
26 | Cc1ccc(Cn2ccc(OCc3ccccc3)cc2=O)cc1 | 143
27 | CC(C)(C)c1nc(Cl)n(-c2c(Cl)cc(Cl)cc2Cl)n1 | 98 to 98.5
28 | CS(=O)(=O)Nc1ccc(/C=C\COCCCCCCNCC(O)c2ccc(O)c(CO)c2)cc1 (centres undefined) | 113 to 116
29 | COc1ccc(Nc2cccc3c2C(=O)N(C2CCC(=O)NC2=O)C3=O)c(Oc2ccccc2)c1 (centres undefined) | 142 to 144
30 | COc1cc2ncc(C#N)c(Nc3cccc(C#N)c3)c2cc1OC | 285 to 288
31 | NS(=O)(=O)c1cc(C=O)co1 | 281 to 284
32 | Cc1ccc(-c2ccc(C=Cc3ccc(Cl)cc3)s2)s1 | 157 to 162
33 | O=C(Nc1cccc2c1C(=O)c1c-2n[nH]c1-c1ccc(N2CCC(N3CCCCC3)CC2)cc1)NN1CCOCC1 | 233
34 | O=C1C=CCC(CCc2ccccc2)(c2ccccc2)O1 (centres undefined) | 130
35 | COc1ccc(C(=O)Nc2ccccc2)cc1NS(=O)(=O)c1cccs1 | 180 to 183
36 | CC(C)(C)OC(=O)Cn1ccn(C2CCc3ccccc3C2)c1=S (centres undefined) | 167 to 169
37 | CCON=C(C(C)=NOCc1ccccc1C(=COC)C(=O)OC)c1ccc(OC(C)c2ccc(Cl)cc2)cc1 (centres undefined) | 107 to 109
38 | CC1(C)CC(=C(c2ccccc2)c2ccc(OCCO)cc2)CC(C)(C)C1 | 131 to 132
39 | O=C(CCc1ccc(NC2=NCCN2)cc1)c1ccc(F)cc1 | 190 to 191
40 | O=C(Oc1ccc2c(c1)C13CCCCC1N(C2)N(C(=O)C1CC1)CC3)C1CC1 (single isomer, unassigned; (+)) | 144
41 | Cc1ccc(Cl)cc1S(N)(=O)=O | 142 to 145
42 | CC(C)Sc1cc(C(C)(C)C)c(O)c(C(C)(C)C)c1 | 80 to 82
43 | CS(=O)(=O)c1ccc(-c2[nH]c(Cl)cc2-c2ccc(F)cc2)cc1 | 206 to 208
44 | CC(C)(Oc1ccc(NC(=O)Nc2cc(Cl)cc(Cl)c2)cc1)C(=O)O | 182 to 184
45 | CC=C(C)c1ccc(-c2ccccc2F)cc1 | 83 to 85
46 | CC(C)(C)C(=O)CC(C(=O)C(C)(C)C)n1cncn1 (centres undefined) | 66 to 69
47 | CCC(=O)C(C=O)=Cc1cc(O)c(O)c(C#N)c1 | 228 to 232
48 | CN1CCC(O)(C#N)CC1 | 130 to 133
49 | CCCCCCCCN(CCCCCCCC)C(=O)CS(=O)(=O)Nc1c(C(C)C)cccc1C(C)C | 107 to 109
50 | Cc1nc2cc(C(c3cccc(Cl)c3)n3ccnc3)ccc2[nH]c1=O (centres undefined) | 271

More lines, now with the values ahead:

Row | melting point [°C] | Structure (SMILES)
51 | 254 to 255 | CNC(=NS(C)(=O)=O)NCc1cccc(-c2csc(N=C(N)N)n2)n1
52 | 250 to 253 | O=C(O)c1cn(Cc2ccccc2)c2nc(N3CCNCC3)ncc2c1=O
53 | 81 to 83 | CCCCCS(=O)(=O)NC(=O)/C=C/c1ccc(OCCOCCOC)cc1Oc1ncc(C(F)(F)F)cc1Cl
54 | 170 to 171 | COc1cccc2c1CN(Nc1ccncc1)CC2
55 | 179 to 181 | C#Cc1cc(C)cc(C)c1-c1c(O)c(C)nn(C)c1=O
56 | 62 to 64 | CCOC(=O)CCc1cc(CCC(=O)O)cc(Cc2cccnc2)c1
57 | 168 | CCCc1nc(SC2CCC(=CC(=O)O)CC2)c(C(=O)O)n1Cc1cc2c(cc1Cl)OCO2 (centres undefined)
58 | 251 to 254 | CCOC(=O)c1cn(C)c2c(=O)c3ccccc3oc2c1=O
59 | 123 | Cc1cncc(CNC(=O)c2sc(N3CCN(CCCC(F)(F)F)C3=O)nc2C)n1
60 | 78 to 80 | COc1cc(C(C)=O)ccc1OCCCCN1CCC(c2nsc3ccccc23)CC1
61 | 65 to 66 | CCOC(=O)CCc1nc(-c2cc3ccccc3o2)cs1
62 | 156 to 157 | CCc1nc(-c2ccc(F)cc2)c(-c2ccc(S(C)(=O)=O)cc2)s1
63 | 80 to 81.5 | CCOC(=O)C1=C(C)NC(C(OCC)OCC)=C(C(=O)OCC)C1c1ccccc1[N+](=O)[O-] (centres undefined)
64 | 265 to 266 | CCCn1c(=O)c2[nH]c(/C=C/c3cccc(F)c3)nc2n(CCC)c1=O
65 | 91 to 92 | CCOC(=O)c1cc(N=c2sc(=S)n3n2CCCC3)c(F)cc1F
66 | 123 | CCOC(=O)c1c(N2CCN(C(=O)c3cccs3)CC2)c2cccnc2n(Cc2ccc(OC(C)=O)cc2)c1=O
67 | 152 | CCCCCC(CC(=O)Nc1cc(C(N)=O)ccc1C(C)(C)C)c1ccc(OC)cc1OC (single isomer, unassigned; (+))
68 | 52 | CCOCCOc1ccc(CCNC(=O)/C=C/c2cccs2)cc1S(N)(=O)=O
69 | 118 to 121 | Cc1cc(SC(C)C)c(NC(=O)CCCCCCSc2nc3ccccc3[nH]2)c(SC(C)C)n1
70 | 121 to 123 | CCOC(=O)c1c(O)c2cccnc2n(CCc2ccccc2)c1=O
71 | 182 to 184 | CCOC(=O)c1ccc(N2Cc3ccccc3C2=O)cc1
72 | 169 | O=C(O)CCCCc1cc2nc(Cl)ccc2n1S(=O)(=O)c1ccc2ncsc2c1
73 | 282 to 284 | O=C(O)c1cn(-c2ccc(F)cc2)c2c(F)c(N3CCCC3)c(F)cc2c1=O
74 | 253 to 257 | COc1cc2c3c(c1)c(=O)c(C(=O)O)cn3CCC2
75 | 137 | COc1ccc(CNc2nc(CCCCCCC(=O)O)nc3sc(Cl)cc23)cc1Cl

Row | melting point [°C] | Structure (SMILES)
76 | 185 | Cc1cccc(C)c1CNc1cc(Br)cc2c1nc(C)n2C
77 | 176 to 179 | COc1cc2c(cc1OC)N(c1ccc([N+](=O)[O-])cc1)CC2
78 | 233 to 234 | Nc1ccc2cccc(Oc3cc(-c4ccc(C(F)(F)F)cc4N)ncn3)c2n1
79 | 151 to 153 | COc1ccc2c(C)nnc(Cl)c2c1
80 | 115 to 116 | CC(C)Oc1ccc(CCCOc2nn(Cc3ccccc3)cc2CC(=O)O)c(Oc2ncc(C(F)(F)F)cc2Cl)c1
81 | 127 to 129 | Cc1nc(-c2cc3cc(OCCNC[C@H](O)c4cccc(Cl)c4)ccc3o2)cs1
82 | 210 to 212 | COC(=O)CNc1cccc2c1C(=O)N(C1CCC(=O)NC1=O)C2=O (centres undefined)
83 | 110 to 111 | Cc1cc(-c2noc(C(F)F)n2)cc(C)c1OCCCc1n[nH]c(=O)s1
84 | 126 to 128 | CCOC(=O)C(O)C1OC(c2ccccc2Cl)c2cc(Cl)ccc2N(C(C)C)C1=O (centres undefined)
85 | 174 to 176 | COC(=O)C1=C(Cl)C(=NO)CC(c2ccc(Cl)c(OC)c2F)N1 (centres undefined)
86 | 131 to 134 | CCCCCCS(=O)(=O)c1nn2c(=O)cc(-c3ccccc3)nc2s1
87 | 156 to 157 | CCn1ncc2c3onc(-c4ccc(OC)cc4)c3cnc21
88 | 220 | CCc1cn2c(N)c(Cl)cc(C(=O)NCC3CCN(CCc4ccc(C(C)(C)C)cc4)CC3)c2n1
89 | 94 to 96 | Nc1c(Cl)cc(C(O)CNCCCCCCOCCc2ccccn2)cc1Cl (centres undefined)
90 | 245 to 247 | O=C(O)C1CCN(c2cc(-c3ccc(Cl)cc3)nc3ccccc23)CC1
91 | 250 to 252 | O=C(NCc1ccc(Cl)cc1)c1cnc2c(OCCO)cc(CCCO)cc2c1O
92 | 58 to 63 | Cc1c(SCCCCS)ccnc1CO
93 | 155 to 158 | CCCOc1ccc(S(=O)(=O)N2CCN(CC)CC2)cc1-c1nc2cc3ncn(Cc4ccc(F)cc4)c3cc2c(=O)[nH]1
94 | 162 to 164 | CCOC(=O)Nc1ccc(CN2OCC(C)(C)C2=O)c(Cl)c1
95 | 164 to 166 | CCC(=O)Nc1nnc2c3c(c(N4CCOCC4)nn12)CCCC3
96 | 154 to 156 | Cc1cccc(C)c1N(CC(=O)NCCC(=O)O)C(=O)c1ccc(Cl)cc1
97 | 136 to 139 | CC(=O)N1CCc2ccc(C(=O)c3cccc(F)c3)cc2C1
98 | 135 to 137 | COc1ccc(NC(=O)c2ccc(-c3ccc(-c4noc(C)n4)cc3)cc2)cc1N1CCN(C)CC1
99 | 41 to 44 | COc1ccc(-c2sc3ccccc3c2C(=O)c2ccc(OCCN3CCCCC3)cc2)cc1
